Experimental data: patent US20250144066A1, “Prevention and Treatment of Parasitic Infections” (priority 2017, published 2025)
pEC50: −log10 of the molar value. Converted amounts (≈) assume the structure as drawn. Where two headings read alike, the source gives them in different places.

Key:
in vitro [1] = details: African green monkey
[2] = Cell Titer-Glo toxicity in C-33A cells (HPV16-15); details: human
Zika Virus [3] = assay: Zika prevention, CPE inhibition (Neutral Red), Huh7, 24 h pre-incubation (Zika-138); format: cell-based; details: Zika virus, Huh-7, Neutral Red (Cytopathic effect), pre-incubated 24 hours prior to infection, read-out: EC50
Zika Virus [4] = assay: Zika virus cytopathic effect (CPE) inhibition, Vero 76, primary screen (Zika-089); format: cell-based; details: for EC50: Zika virus, MR766, Vero 76, primary
[5] = system: Respiratory syncytial virus A2; assay: microbe, parasite or virus in culture; format: cell-based
Zika Virus [6] = assay: Zika virus yield reduction (VYR), Huh7, secondary (Zika-094); format: cell-based; details: Huh-7, Visual (Virus yield reduction), MR766
Zika Virus [7] = assay: Zika virus CPE inhibition (Neutral Red), Vero 76, secondary (Zika-094); format: cell-based; details: Neutral Red (Cytopathic effect), MR766
Zika Virus [8] = assay: Zika prevention, CPE inhibition (Neutral Red), Vero 76, 24 h pre-incubation (Zika-138); format: cell-based; details: Zika virus, Neutral Red (Cytopathic effect), pre-incubated 24 hours prior to infection, read-out: EC50
Zika Virus [9] = assay: Zika virus CPE inhibition (Neutral Red), Huh7, secondary (Zika-094); format: cell-based
[10] = NR toxicity in RAW264.7 cells (17-09); details: mouse
[11] = Neutral Red toxicity in Vero 76 cells, 4 h pre-incubation (Zika-138); details: monkey
Zika Virus [12] = assay: Zika prevention, virus yield reduction (VYR), Huh7, 4 h pre-incubation (Zika-138); format: cell-based; details: for Virus Titer: 4 hr pre-incubation, Huh7 cells
Protocol: (§1) An experiment was carried out as specified in Example 8. In a Zika Prevention Trial, MPA was pre-incubated with human cells 4 hours or 24 hours before Zika virus infection.

Zika Virus [13] = assay: Zika prevention, CPE inhibition (Neutral Red), Vero 76, 4 h pre-incubation (Zika-138); format: cell-based; details: Zika virus, Neutral Red (Cytopathic effect), pre-incubated 4 hours prior to infection, read-out: EC50
[14] = Neutral Red toxicity in Huh7 cells, secondary (Zika-094); details: human
Zika Virus [15] = assay: Zika prevention, virus yield reduction (VYR), Vero 76, 4 h pre-incubation (Zika-138); format: cell-based; details: Zika virus, Visual (Virus yield reduction), pre-incubated 4 hours prior to infection, read-out: EC90
mouse norovirus (MNV-1) = assay: Mouse norovirus CPE inhibition (NR), RAW264.7 (17-09); format: cell-based; details: Norovirus
[16] = Toxicity in Vero 76 cells, primary screen (Zika-089); details: monkey
[17] = Neutral Red toxicity in Vero 76 cells, 24 h pre-incubation (Zika-138); details: monkey
[18] = system: Influenza A virus H1N1 California/07/2009; assay: microbe, parasite or virus in culture; format: cell-based
in vitro [19] = details: dog
Zika Virus [20] = assay: Zika prevention, virus yield reduction (VYR), Huh7, 24 h pre-incubation (Zika-138); format: cell-based; details: for Virus Titer: 24 hr pre-incubation, Huh7 cells
Protocol: as §1

Adenovirus5 Adenoid75 = assay: Adenovirus 5 CPE inhibition, A549 (ADV-0172); format: cell-based; details: for EC50: Human mastadenovirus C, A549, read-out: EC50
[21] = system: Rift Valley fever virus MP-12; assay: microbe, parasite or virus in culture; format: cell-based; details: for EC50: Rift Valley fever virus, Vero76
[22] = Toxicity in A549 cells (ADV-0172); format: cell-based; details: human, A549 cells
Lassa fever virus Josiah = assay: organism not typed; format: cell-based
[23] = system: human norovirus (NV, GT1); assay: Human norovirus replicon, qPCR, HG23, secondary (17-14); format: cell-based; details: Norovirus
Text: (§2) Secondary testing was done with human norovirus.

[24] = Neutral Red toxicity in Huh7 cells, 4 h pre-incubation (Zika-138); details: human
MDCK = details: Neutral Red (Toxicity)
Zika Virus [25] = assay: Zika virus yield reduction (VYR), Vero 76, secondary (Zika-094); format: cell-based; details: Visual (Virus yield reduction), MR766
Zika Virus [26] = assay: Zika prevention, virus yield reduction (VYR), Vero 76, 24 h pre-incubation (Zika-138); format: cell-based; details: Zika virus, Visual (Virus yield reduction), pre-incubated 24 hours prior to infection, read-out: EC90
[27] = system: human norovirus (NV, GT1); assay: Human norovirus replicon, RNA Hybridization, HG23, primary (16-21); format: cell-based
Text: as §2

Vero76 = details: African green monkey
Zika Virus [28] = assay: Zika prevention, CPE inhibition (Neutral Red), Huh7, 4 h pre-incubation (Zika-138); format: cell-based; details: Zika virus, Huh-7, Neutral Red (Cytopathic effect), pre-incubated 4 hours prior to infection, read-out: EC50
[29] = Vero 76, Neutral Red (Cytopathic effect)
[30] = Vero 76, Visual (Cytopathic effect)

COc1c(C)c2c(c(O)c1C/C=C(\C)CCC(=O)O)C(=O)OC2 [EP1601, 6-(4-hydroxy-6-methoxy-7-methyl-3-oxo-1,3-dihydroisobenzofuran-5-yl)-4-methyl-hex-4-enoic acid]
CC50 (in vitro [1]): 26 mg/L (≈ 81.2 µM)
CC50 [2]: > 150 µM
EC50 (Zika Virus [3]): 0.55 mg/L (≈ 1.72 µM)
EC50 (Zika Virus [4]; [29]): 0.15 mg/L (≈ 0.468 µM)
EC50 (Zika Virus [4]; [30]): < 0.1 mg/L
activity against Zika Virus (Zika Virus [4]; three in vitro tests (Zika-A, Zika-B, Zika-C)): active
activity against Respiratory Syncytial Virus [5]: highly active
EC50 ([5]; human respiratory syncytial virus, MA104): < 0.1 mg/L
EC90 (Zika Virus [6]): 0.088 mg/L (≈ 0.275 µM)
EC50 (Zika Virus [7]): 0.14 mg/L (≈ 0.437 µM)
EC50 (Zika Virus [8]): 8 mg/L (≈ 25 µM)
EC50 (Zika Virus [9]; Huh-7, Neutral Red (Cytopathic effect), MR766, Huh7, secondary): 0.14 mg/L (≈ 0.437 µM)
EC50 (Zika Virus [9]; Huh-7, Zika virus, 'one of our tests' (test not specified), read-out: EC50): 0.049 mg/L (≈ 0.153 µM)
CC50 [10]: 32 µM
CC50 [11]: > 100 mg/L
Virus Titer (Zika Virus [12]; MPA 0.1 μg/ml): 4.5 Log10 CCID50/0.1 ml
Virus Titer (Zika Virus [12]; MPA 1 μg/ml): 4.5 Log10 CCID50/0.1 ml
Virus Titer (Zika Virus [12]; MPA 10 μg/ml): 4.5 Log10 CCID50/0.1 ml
Virus Titer (Zika Virus [12]; MPA 32 μg/ml): 4.5 Log10 CCID50/0.1 ml
Virus Titer (Zika Virus [12]; MPA 100 μg/ml): 0.67 Log10 CCID50/0.1 ml
EC90 (Zika Virus [12]; Zika virus, Huh-7, Visual (Virus yield reduction), Huh7, pre-incubated 4 hours prior to infection, read-out: EC90): 42.7 mg/L (≈ 133 µM)
mitigation of infection by Zika virus (Zika Virus [12]; given 4 hours before the infection): strongly mitigated the infection
EC50 (Zika Virus [13]): > 100 mg/L
CC50 [14]: 1.6 mg/L (≈ 4.99 µM)
EC90 (Zika Virus [15]): 17.8 mg/L (≈ 55.6 µM)
pEC50 (mouse norovirus (MNV-1)): 6.91
EC90 (mouse norovirus (MNV-1)): 0.384 µM
CC50 ([16]; CC50, Neutral Red (Toxicity)): 14 mg/L (≈ 43.7 µM)
CC50 ([16]; CC50, Visual (Toxicity)): > 100 mg/L
CC50 [17]: 37 mg/L (≈ 116 µM)
activity against pandemic Influenza A H1N1 (California/07/2009) [18]: highly active
pEC50 ([18]; Influenza A virus, H1N1, MDCK): > 7.00
CC50 (in vitro [19]): > 100 µM
virus in VYR assay (Zika Virus [20]; Huh7 cells pre-incubated with drug for 24 hrs): reduced virus to zero
Virus Titer (Zika Virus [20]; MPA 0.1 μg/ml): 4.5 Log10 CCID50/0.1 ml
Virus Titer (Zika Virus [20]; MPA 1 μg/ml): 3.5 Log10 CCID50/0.1 ml
Virus Titer (Zika Virus [20]; MPA 10 μg/ml): <.67 Log10 CCID50/0.1 ml
Virus Titer (Zika Virus [20]; MPA 32 μg/ml): <.67 Log10 CCID50/0.1 ml
Virus Titer (Zika Virus [20]; MPA 100 μg/ml): <.67 Log10 CCID50/0.1 ml
EC90 (Zika Virus [20]; Zika virus, Huh-7, Visual (Virus yield reduction), Huh7, pre-incubated 24 hours prior to infection, read-out: EC90): 0.78 mg/L (≈ 2.43 µM)
prevention of infection by Zika virus (Zika Virus [20]; given 24 hours before infection): completely prevent infection
activity against Adenovirus 5 (Adenovirus5 Adenoid75): active
EC50 (Adenovirus5 Adenoid75; A549, Neutral Red (Cytopathic effect)): 0.31 mg/L (≈ 0.968 µM)
EC50 (Adenovirus5 Adenoid75; A549, Visual (Cytopathic effect)): 0.32 mg/L (≈ 0.999 µM)
activity against Rift Valley [21]: active
EC50 [21, 29]: 4 mg/L (≈ 12.5 µM)
EC50 [21, 30]: 3.1 mg/L (≈ 9.68 µM)
CC50 ([22]; Neutral Red (Toxicity)): 12 mg/L (≈ 37.5 µM)
CC50 ([22]; Visual (Toxicity)): 15 mg/L (≈ 46.8 µM)
activity against Lassa Fever (Lassa fever virus Josiah): active
EC50 (Lassa fever virus Josiah; Vero): 0.2 mg/L (≈ 0.624 µM)
pEC50 [23]: 6.66
EC90 [23]: 1.1 µM
CC50 [24]: > 100 mg/L
CC50 (MDCK): > 100 µM
EC90 (Zika Virus [25]): 0.3 mg/L (≈ 0.937 µM)
EC90 (Zika Virus [26]): 10 mg/L (≈ 31.2 µM)
pEC50 ([27]; Norovirus, GT1, HG23): 6.82
EC90 ([27]; Norovirus, GT1, HG23): 1.3 µM
activity against Norovirus ([27]; three in vitro tests (human and mouse norovirus)): active
CC50 (Vero76): 17 mg/L (≈ 53.1 µM)
EC50 (Zika Virus [28]): 0.17 mg/L (≈ 0.531 µM)
